Experimental data from ChEMBL document CHEMBL6096730, “Unlocking the Therapeutic Potential of Natural Products for Alzheimer's Disease” (J Med Chem, 2025).

Columns and labels:
[1] = biological target: Amyloid-beta precursor protein (Homo sapiens) (UniProt P05067); test: Inhibition of self-mediated Amyloid beta (1 to 42) (unknown origin) aggregation at 20 uM measured every 5 mins by ThT fluorescence based assay relative to control
[2] = biological target: Acetylcholinesterase (Homo sapiens, UniProt P22303); test: Inhibition of human erythrocyte acetylcholinesterase using acetylthiocholine as substrate by Ellman's method
Sequence of Acetylcholinesterase (P22303 whole entry): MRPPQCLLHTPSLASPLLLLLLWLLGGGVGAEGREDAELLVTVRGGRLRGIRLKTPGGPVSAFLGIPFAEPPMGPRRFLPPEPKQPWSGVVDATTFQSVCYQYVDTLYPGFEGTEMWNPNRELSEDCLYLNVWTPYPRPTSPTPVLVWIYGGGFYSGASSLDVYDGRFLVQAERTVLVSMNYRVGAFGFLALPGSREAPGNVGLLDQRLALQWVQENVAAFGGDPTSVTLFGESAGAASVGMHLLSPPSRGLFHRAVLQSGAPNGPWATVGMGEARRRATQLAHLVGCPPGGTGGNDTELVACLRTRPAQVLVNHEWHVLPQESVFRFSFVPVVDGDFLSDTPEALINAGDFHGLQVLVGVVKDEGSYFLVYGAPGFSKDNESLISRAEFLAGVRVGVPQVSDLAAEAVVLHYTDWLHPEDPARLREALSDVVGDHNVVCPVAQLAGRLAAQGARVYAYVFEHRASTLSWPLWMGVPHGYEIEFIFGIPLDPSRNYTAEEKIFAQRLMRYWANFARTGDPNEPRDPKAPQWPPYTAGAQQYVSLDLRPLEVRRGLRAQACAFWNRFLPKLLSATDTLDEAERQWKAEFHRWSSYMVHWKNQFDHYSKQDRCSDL

Sequence of Amyloid-beta precursor protein (Homo sapiens) (P05067 whole entry): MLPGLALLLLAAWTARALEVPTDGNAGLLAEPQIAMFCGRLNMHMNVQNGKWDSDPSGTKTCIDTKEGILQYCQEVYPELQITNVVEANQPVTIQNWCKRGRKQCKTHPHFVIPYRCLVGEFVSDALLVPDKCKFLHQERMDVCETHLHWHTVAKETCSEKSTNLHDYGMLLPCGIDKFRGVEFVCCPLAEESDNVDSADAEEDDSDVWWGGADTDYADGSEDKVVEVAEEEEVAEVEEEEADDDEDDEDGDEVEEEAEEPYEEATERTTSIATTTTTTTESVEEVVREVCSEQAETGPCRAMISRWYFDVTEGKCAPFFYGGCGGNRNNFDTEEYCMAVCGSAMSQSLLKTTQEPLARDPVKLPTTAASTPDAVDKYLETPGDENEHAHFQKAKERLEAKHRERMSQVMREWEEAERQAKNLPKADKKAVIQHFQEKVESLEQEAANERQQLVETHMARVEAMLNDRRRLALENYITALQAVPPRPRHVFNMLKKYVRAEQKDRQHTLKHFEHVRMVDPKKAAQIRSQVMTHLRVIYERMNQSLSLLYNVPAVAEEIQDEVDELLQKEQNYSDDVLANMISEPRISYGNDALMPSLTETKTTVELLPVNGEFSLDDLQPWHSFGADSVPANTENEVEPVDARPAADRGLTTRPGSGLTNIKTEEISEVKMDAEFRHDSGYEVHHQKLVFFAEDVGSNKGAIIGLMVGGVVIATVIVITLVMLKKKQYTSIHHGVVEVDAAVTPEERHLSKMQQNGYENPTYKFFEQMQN

SMILES | inhibition [1] | IC50 [2]
COc1cc([C@H](O)[C@H](C)Oc2ccc(CCCO)cc2O)ccc1O | 81% | 
COc1ccc([C@H]2O[C@@H](O)[C@H]3[C@@H]2C(=O)O[C@@H]3c2cc(OC)c3c(c2)OCO3)cc1OC |  | 0.3 µM
